IC50 data for 14 compounds are collected here from patent US11053226B2, “KRAS G12C inhibitors and methods of using the same” (Amgen Inc., priority 2018, dated 2021).

The structures appear in SMILES notation.

Sequence of GDP-bound KRAS protein (aa 1-169), containing both G12C and C118A amino acid substitutions (P01116 other isoform, or with tags, fused parts or gaps G12C/C118A): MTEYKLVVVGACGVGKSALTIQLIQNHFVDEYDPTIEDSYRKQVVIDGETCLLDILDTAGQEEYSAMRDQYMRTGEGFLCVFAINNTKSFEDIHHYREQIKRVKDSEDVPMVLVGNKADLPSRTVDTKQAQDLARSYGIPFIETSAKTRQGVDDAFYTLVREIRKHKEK

For one assay, the system named is Phosphorylation of ERK1/2 in MIA PaCa-2 cells. Kind of assay: Phospho-ERK1/2 MSD Assay. In kind it is cell-based. The settings on record: Homo sapiens, MIA PaCa-2, read-out: pERK IC50 (4 h); 4 h compound treatment; MiaPaCa-2 cells.
Consider `C=CC(=O)N1CC(NC(=O)Cn2c(C)c(-c3ccccc3Cc3ccccc3)c3cc(Cl)ccc32)C1` [Example 56], for which the IC50 (as a rule, the point on the concentration scale where inhibition reaches its midpoint) is 6.17 µM.
Take `C=CC(=O)N1CC(NC(=O)Cn2c3ccc(Br)cc3c3ccc(Oc4ccccn4)nc32)C1` [Example 57]: the IC50 amounted to 6.81 µM.
Take `C=CC(=O)N1CC(NC(=O)Cn2cc(-c3ccccc3-c3ccccc3)c3cc(Br)cc(C)c32)C1` [Example 62]: the IC50 amounted to 7.06 µM.
As for `C=CC(=O)N1CC(N(C)C(=O)Cn2cc(I)c3cc(I)ccc32)C1` [Example 66], the IC50 was found to be 8.48 µM.
As for `C=CC(=O)N1CC(NC(=O)Cn2c(C)c(-c3ccccc3-c3ccccc3)c3cc(Cl)ccc32)C1` [Example 67], the IC50 is 8.8 µM.
Take `C=CC(=O)N1CC(NC(=O)Cn2cc(I)c3ccc(Br)cc32)C1` [Example 70]: the IC50 came out at 9.94 µM.
On the same count and under the same terms, the figure for `C=CC(=O)N1CC(NC(=O)Cn2c3ccccc3c3cc(Br)ccc32)C1` [Example 71] is 10.6 µM; for `C=CC(=O)N1CC(NC(=O)Cn2c3ccc(Br)cc3c3c(Cl)ccnc32)C1` [Example 75] it is 11.3 µM; for `C=CC(=O)N1CC(NC(=O)Cn2cc(-c3ccccc3C)c3cc(Cl)ccc32)C1` [Example 78] it is 11.7 µM.
Same read-out and setting: the figure for `C=CC(=O)N1CC(NC(=O)Cn2cc(I)c3cc(Br)ccc32)C1` [Example 85] is 14 µM.
Regarding `C=CC(=O)N1CC(NC(=O)Cn2cc(I)c3cc(Br)cc(CC)c32)C1` [Example 87], the IC50 was found to be 14.7 µM.
With `C=CC(=O)N1CC(NC(=O)Cn2c(C(=O)NCc3ccccc3CN(C)C)cc3cc(Br)ccc32)C1` [Example 88], the IC50 is 14.9 µM.
Same read-out and setting: the figure for `C=CC(=O)N1CC(N2CCC(n3cc(I)c4cc(Cl)ccc43)C2=O)C1` (stereo not shown) [Example 90] is 16 µM; for `C=CC(=O)N1CC(NC(=O)Cn2cc(Br)c3cc(Cl)cc(C)c32)C1` [Example 91] it is 16.3 µM.

For a further assay, the target named is GDP-bound KRAS protein (aa 1-169), containing both G12C and C118A amino acid substitutions (Homo sapiens (Human), UniProt P01116, C118A/G12C). In words: Coupled Nucleotide Exchange Assay. In kind it is biochemical. The settings on record: read-out: Coupled Exchange IC50 (5 min); 5 min compound pre-incubation. Here is the method:
For compounds in Table 9, the following assay conditions were employed:
Coupled Nucleotide Exchange Assay:
The assay plates were then read on a PerkinElmer EnVision Multilabel Reader, using AlphaScreen® technology, and data were analyzed using a 4-parameter logistic model to calculate IC50 values.
As for `C=CC(=O)N1CC(NC(=O)Cn2c(C)c(-c3ccccc3Cc3ccccc3)c3cc(Cl)ccc32)C1` [Example 56], the 50% inhibitory concentration (IC50) was 4.77 µM.
With `C=CC(=O)N1CC(N(C)C(=O)Cn2cc(I)c3cc(I)ccc32)C1` [Example 66], the IC50 is 19.5 µM.
Take `C=CC(=O)N1CC(NC(=O)Cn2c(C)c(-c3ccccc3-c3ccccc3)c3cc(Cl)ccc32)C1` [Example 67]: the IC50 was 3.9 µM.
Turning to `C=CC(=O)N1CC(NC(=O)Cn2cc(-c3ccccc3C)c3cc(Cl)ccc32)C1` [Example 78], the IC50 is 33.1 µM.
Turning to `C=CC(=O)N1CC(NC(=O)Cn2cc(I)c3cc(Br)ccc32)C1` [Example 85], the IC50 came out at 23.6 µM.
Same read-out and setting: the figure for `C=CC(=O)N1CC(N2CCC(n3cc(I)c4cc(Cl)ccc43)C2=O)C1` (stereo not shown) [Example 90] is 61.1 µM.

Still in this assay, the particulars now being: read-out: Coupled Exchange IC50 (2 h); 2 h compound pre-incubation.
`C=CC(=O)N1CC(NC(=O)Cn2c(C)c(-c3ccccc3Cc3ccccc3)c3cc(Cl)ccc32)C1` [Example 56]: the IC50 is 0.88 µM.
In the case of `C=CC(=O)N1CC(NC(=O)Cn2c3ccc(Br)cc3c3ccc(Oc4ccccn4)nc32)C1` [Example 57], the IC50 is 0.99 µM.
On to `C=CC(=O)N1CC(NC(=O)Cn2cc(-c3ccccc3-c3ccccc3)c3cc(Br)cc(C)c32)C1` [Example 62], for which the IC50 is 1.18 µM.
For `C=CC(=O)N1CC(N(C)C(=O)Cn2cc(I)c3cc(I)ccc32)C1` [Example 66], the IC50 was determined as 2.41 µM.
In the case of `C=CC(=O)N1CC(NC(=O)Cn2c(C)c(-c3ccccc3-c3ccccc3)c3cc(Cl)ccc32)C1` [Example 67], the IC50 is 0.83 µM.
Still for that read-out and setting: the figure for `C=CC(=O)N1CC(NC(=O)Cn2cc(I)c3ccc(Br)cc32)C1` [Example 70] is 8.96 µM.
As to `C=CC(=O)N1CC(NC(=O)Cn2c3ccccc3c3cc(Br)ccc32)C1` [Example 71], the IC50 is 3.51 µM.
`C=CC(=O)N1CC(NC(=O)Cn2c3ccc(Br)cc3c3c(Cl)ccnc32)C1` [Example 75]: the IC50 amounted to 3.73 µM.
Turning to `C=CC(=O)N1CC(NC(=O)Cn2cc(-c3ccccc3C)c3cc(Cl)ccc32)C1` [Example 78], the IC50 amounted to 5.49 µM.
Take `C=CC(=O)N1CC(NC(=O)Cn2cc(I)c3cc(Br)ccc32)C1` [Example 85]: the IC50 was 3.84 µM.
The same measure, in the same setting: the figure for `C=CC(=O)N1CC(NC(=O)Cn2cc(I)c3cc(Br)cc(CC)c32)C1` [Example 87] is 4.81 µM; for `C=CC(=O)N1CC(NC(=O)Cn2c(C(=O)NCc3ccccc3CN(C)C)cc3cc(Br)ccc32)C1` [Example 88] it is 3.26 µM; for `C=CC(=O)N1CC(N2CCC(n3cc(I)c4cc(Cl)ccc43)C2=O)C1` (stereo not shown) [Example 90] it is 4.3 µM.
Consider `C=CC(=O)N1CC(NC(=O)Cn2cc(Br)c3cc(Cl)cc(C)c32)C1` [Example 91], for which the IC50 came to 3.18 µM.

The assay is the same for the next values; noted with them: read-out: Coupled Exchange IC50 (20 h); 20 h compound pre-incubation.
Regarding `C=CC(=O)N1CC(NC(=O)Cn2c3ccc(Br)cc3c3ccc(Oc4ccccn4)nc32)C1` [Example 57], the IC50 turned out to be 0.14 µM.
For the compound `C=CC(=O)N1CC(NC(=O)Cn2cc(-c3ccccc3-c3ccccc3)c3cc(Br)cc(C)c32)C1` [Example 62], the IC50 was determined as 0.25 µM.
The same measure, in the same setting: the figure for `C=CC(=O)N1CC(N(C)C(=O)Cn2cc(I)c3cc(I)ccc32)C1` [Example 66] is 0.1 µM; for `C=CC(=O)N1CC(NC(=O)Cn2c(C)c(-c3ccccc3-c3ccccc3)c3cc(Cl)ccc32)C1` [Example 67] it is 0.24 µM; for `C=CC(=O)N1CC(NC(=O)Cn2cc(I)c3ccc(Br)cc32)C1` [Example 70] it is 1.7 µM.
On the same count and under the same terms, the figure for `C=CC(=O)N1CC(NC(=O)Cn2c3ccccc3c3cc(Br)ccc32)C1` [Example 71] is 0.52 µM.
On the same count and under the same terms, for `C=CC(=O)N1CC(NC(=O)Cn2c3ccc(Br)cc3c3c(Cl)ccnc32)C1` [Example 75] the value was 0.43 µM; for `C=CC(=O)N1CC(NC(=O)Cn2cc(-c3ccccc3C)c3cc(Cl)ccc32)C1` [Example 78], 1.2 µM; for `C=CC(=O)N1CC(NC(=O)Cn2cc(I)c3cc(Br)ccc32)C1` [Example 85], 0.49 µM.
For the compound `C=CC(=O)N1CC(NC(=O)Cn2cc(I)c3cc(Br)cc(CC)c32)C1` [Example 87], the IC50 amounted to 0.91 µM.
With `C=CC(=O)N1CC(NC(=O)Cn2c(C(=O)NCc3ccccc3CN(C)C)cc3cc(Br)ccc32)C1` [Example 88], the 50% inhibitory concentration (IC50) is 0.72 µM.
In the case of `C=CC(=O)N1CC(N2CCC(n3cc(I)c4cc(Cl)ccc43)C2=O)C1` (stereo not shown) [Example 90], the half-inhibitory concentration (IC50) turned out to be 0.48 µM.
With `C=CC(=O)N1CC(NC(=O)Cn2cc(Br)c3cc(Cl)cc(C)c32)C1` [Example 91], the IC50 came out at 0.37 µM.

In the next assay the test system is Phosphorylation of ERK1/2 in A549 cells. Kind of assay: Phospho-ERK1/2 MSD Assay (A549). In kind it is cell-based. The settings on record: Homo sapiens, read-out: pERK IC50 (4 h), 4 h compound treatment.
Consider `C=CC(=O)N1CC(NC(=O)Cn2c(C)c(-c3ccccc3Cc3ccccc3)c3cc(Cl)ccc32)C1` [Example 56], for which the IC50 is over 100 µM.
Turning to `C=CC(=O)N1CC(NC(=O)Cn2c3ccc(Br)cc3c3ccc(Oc4ccccn4)nc32)C1` [Example 57], the IC50 was over 100 µM.
Regarding `C=CC(=O)N1CC(NC(=O)Cn2cc(-c3ccccc3-c3ccccc3)c3cc(Br)cc(C)c32)C1` [Example 62], the IC50 was over 33.3 µM.
For the compound `C=CC(=O)N1CC(N(C)C(=O)Cn2cc(I)c3cc(I)ccc32)C1` [Example 66], the IC50 is over 33.3 µM.
In the case of `C=CC(=O)N1CC(NC(=O)Cn2c(C)c(-c3ccccc3-c3ccccc3)c3cc(Cl)ccc32)C1` [Example 67], the IC50 is over 100 µM.
For the compound `C=CC(=O)N1CC(NC(=O)Cn2cc(I)c3ccc(Br)cc32)C1` [Example 70], the IC50 was over 100 µM.
Turning to `C=CC(=O)N1CC(NC(=O)Cn2c3ccccc3c3cc(Br)ccc32)C1` [Example 71], the IC50 is over 100 µM.
As to `C=CC(=O)N1CC(NC(=O)Cn2c3ccc(Br)cc3c3c(Cl)ccnc32)C1` [Example 75], the IC50 was over 100 µM.
On the same count and under the same terms, for `C=CC(=O)N1CC(NC(=O)Cn2cc(-c3ccccc3C)c3cc(Cl)ccc32)C1` [Example 78] the value was over 100 µM; for `C=CC(=O)N1CC(NC(=O)Cn2cc(I)c3cc(Br)ccc32)C1` [Example 85], over 100 µM.
As to `C=CC(=O)N1CC(NC(=O)Cn2cc(I)c3cc(Br)cc(CC)c32)C1` [Example 87], the IC50 was over 100 µM.
The same measure, in the same setting: for `C=CC(=O)N1CC(NC(=O)Cn2c(C(=O)NCc3ccccc3CN(C)C)cc3cc(Br)ccc32)C1` [Example 88] the value was over 100 µM; for `C=CC(=O)N1CC(N2CCC(n3cc(I)c4cc(Cl)ccc43)C2=O)C1` (stereo not shown) [Example 90], over 100 µM; for `C=CC(=O)N1CC(NC(=O)Cn2cc(Br)c3cc(Cl)cc(C)c32)C1` [Example 91], over 100 µM.
